Data published in patent US20230203043A1, “NOVEL IMIDAZOPYRAZINE DERIVATIVES” (Hoffmann-La Roche Inc., priority 2020, published 2023).
Where a name gives a salt, the structure may show the parent alone.

Test system: Acinetobacter baumannii ATCC17961
Assay: Antimicrobial susceptibility testing: 90% growth inhibitory concentration (IC90) determination in Iso-Sensitest broth, OD600 growth
Format: cell-based
Conditions: Acinetobacter baumannii, ATCC17961, 16 h, read-out: A. baumannii ATCC 17961 IC90 (uM), strain ATCC 17961, OD600 growth over 16 h
Procedure, shortened: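 Twofold compound dilutions (e.g. 50 to 0.097 μM final) in Iso-Sensitest broth with ~5×10^(5) CFU/ml, 35±2 °C. OD600 read every 20 min over 16 h; IC90 from growth inhibition during logarithmic phase.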

| Structure (SMILES) | IC90 [µM] |
| --- | --- |
| O=C(CC1CCNCC1)N1CCN(C(=O)c2ccc(Nc3nccn4c(-c5cn(CC(F)F)nc5C(F)(F)F)cnc34)cc2Cl)CC1 [Example 578, 1-(4-(2-chloro-4-((3-(1-(2,2-difluoroethyl)-3-(trifluoromethyl)-1H-pyrazol-4-yl)imidazo[1,2-a]pyrazin-8-yl)amino)benzoyl)piperazin-1-yl)-2-(piperidin-4-yl) ethan-1-one formate] | 0.394 |
| N#CCn1cc(-c2cnc3c(Nc4ccc(C(=O)N5CCN(C(=O)NCC6(O)CNC6)CC5)c(Cl)c4)nccn23)c(C(F)(F)F)n1 [Example 579, 4-(2-chloro-4-((3-(1-(cyanomethyl)-3-(trifluoromethyl)-1H-pyrazol-4-yl)imidazo[1,2-a]pyrazin-8-yl)amino)benzoyl)-N-((3-hydroxyazetidin-3-yl)methyl)piperazine-1-carboxamide formate] | 0.538 |
| O=C(NCC1(O)CNC1)N1CCN(C(=O)c2ccc(Nc3nccn4c(-c5cn(CC(F)F)nc5C(F)(F)F)cnc34)cc2Cl)CC1 [Example 580, 4-(2-chloro-4-((3-(1-(2,2-difluoroethyl)-3-(trifluoromethyl)-1H-pyrazol-4-yl)imidazo[1,2-a]pyrazin-8-yl)amino)benzoyl)-N-((3-hydroxyazetidin-3-yl)methyl)piperazine-1-carboxamide formate] | 0.322 |
| N#CCn1cc(-c2cnc3c(Nc4ccc(C(=O)N5CCN(C(=O)[C@H]6CC[C@H](N)C6)CC5)c(Cl)c4)nccn23)c(C(F)(F)F)n1 [Example 582, 2-(4-(8-((4-(4-((1S,3S)-3-aminocyclopentane-1-carbonyl)piperazine-1-carbonyl)-3-chlorophenyl)amino)imidazo[1,2-a]pyrazin-3-yl)-3-(trifluoromethyl)-1H-pyrazol-1-yl) acetonitrile formate] | 0.232 |
| N[C@H]1CC[C@H](C(=O)N2CCN(C(=O)c3ccc(Nc4nccn5c(-c6cn(CC(F)F)nc6C(F)(F)F)cnc45)cc3Cl)CC2)C1 [Example 583, (4-((1S,3S)-3-aminocyclopentane-1-carbonyl)piperazin-1-yl) (2-chloro-4-((3-(1-(2,2-difluoroethyl)-3-(trifluoromethyl)-1H-pyrazol-4-yl)imidazo[1,2-a]pyrazin-8-yl)amino)phenyl) methanone formate] | 0.347 |
| CCc1cc(Nc2nccn3c(-c4c[nH]nc4C(F)(F)F)cnc23)ccc1C(=O)NCCNC(=O)[C@@H]1CC[C@@H](N)C1 [Example 586, N-[2-[[(1R,3R)-3-aminocyclo-pentanecarbonyl]amino]ethyl]-2-ethyl-4-[[3-[3-(trifluoromethyl)-1H-pyrazol-4-yl]imidazo[1,2-a]pyrazin-8-yl]amino]benzamide formate] | 0.434 |
| CCc1cc(Nc2nccn3c(-c4cn(CC#N)nc4C(F)(F)F)cnc23)ccc1C(=O)NCCNC(=O)[C@@H]1CC[C@@H](N)C1 [Example 587, N-(2-((1R,3R)-3-aminocyclopentane-1-carboxamido)ethyl)-4-((3-(1-(cyanomethyl)-3-(trifluoromethyl)-1H-pyrazol-4-yl)imidazo[1,2-a]pyrazin-8-yl)amino)-2-ethylbenzamide formate] | 0.221 |
| CCc1cc(Nc2nccn3c(-c4c[nH]nc4C(F)(F)F)cnc23)ccc1C(=O)NCCNC(=O)[C@H]1CC[C@H](N)C1 [Example 588, N-(2-((1S,3S)-3-aminocyclopentane-1-carboxamido)ethyl)-2-ethyl-4-((3-(3-(trifluoromethyl)-1H-pyrazol-4-yl)imidazo[1,2-a]pyrazin-8-yl)amino)benzamide formate] | 0.46 |
| CNC(=O)c1ccc(Nc2nccn3c(-c4cn(CCN(C)C)nc4C(F)(F)F)cnc23)cc1Cl [Example 591, 2-chloro-4-((3-(1-(2-(dimethylamino)ethyl)-3-(trifluoromethyl)-1H-pyrazol-4-yl)imidazo[1,2-a]pyrazin-8-yl)amino)-N-methylbenzamide formate] | 0.483 |
| CNC(=O)c1ccc(Nc2nccn3c(-c4cn(C5CCN(Cc6ccccc6)CC5)nc4C(F)(F)F)cnc23)cc1Cl [Example 592, 4-((3-(1-(1-benzylpiperidin-4-yl)-3-(trifluoromethyl)-1H-pyrazol-4-yl)imidazo[1,2-a]pyrazin-8-yl)amino)-2-chloro-N-methylbenzamide formate] | 0.402 |
| CNC(=O)c1ccc(Nc2nccn3c(-c4cn(CC5CCN(Cc6ccccc6)C5)nc4C(F)(F)F)cnc23)cc1Cl (stereo not drawn) [Example 593, 4-((3-(1-((1-benzylpyrrolidin-3-yl)methyl)-3-(trifluoromethyl)-1H-pyrazol-4-yl)imidazo [1,2-a]pyrazin-8-yl)amino)-2-chloro-N-methylbenzamide formate] | 0.234 |
| CNC(=O)c1ccc(Nc2nccn3c(-c4cn(CCCc5ccc(CN)cc5)nc4C(F)(F)F)cnc23)cc1Cl [Example 594, 4-((3-(1-(3-(4-(aminomethyl)phenyl)propyl)-3-(trifluoromethyl)-1H-pyrazol-4-yl)imidazo[1,2-a]pyrazin-8-yl)amino)-2-chloro-N-methylbenzamide formate] | 0.164 |
| CNC(=O)c1ccc(Nc2nccn3c(-c4cn(Cc5cccc(CCN)c5)nc4C(F)(F)F)cnc23)cc1Cl [Example 595, 4-((3-(1-(3-(2-aminoethyl)benzyl)-3-(trifluoromethyl)-1H-pyrazol-4-yl)imidazo[1,2-a]pyrazin-8-yl)amino)-2-chloro-N-methylbenzamide formate] | 0.186 |
| NCCNC(=O)CN1CCN(C(=O)c2ccc(Nc3nccn4c(-c5cn(CC(F)F)nc5C(F)(F)F)cnc34)cc2Cl)CC1 [Example 598, N-(2-aminoethyl)-2-(4-(2-chloro-4-((3-(1-(2,2-difluoroethyl)-3-(trifluoromethyl)-1H-pyrazol-4-yl)imidazo[1,2-a]pyrazin-8-yl)amino)benzoyl)piperazin-1-yl)acetamide formate] | 0.359 |
| O=C(CN1CCN(C(=O)c2ccc(Nc3nccn4c(-c5cn(CC(F)F)nc5C(F)(F)F)cnc34)cc2Cl)CC1)NC1CNC1 [Example 599, N-(azetidin-3-yl)-2-(4-(2-chloro-4-((3-(1-(2,2-difluoroethyl)-3-(trifluoromethyl)-1H-pyrazol-4-yl)imidazo[1,2-a]pyrazin-8-yl)amino)benzoyl)piperazin-1-yl)acetamide formate] | 0.522 |

Same assay, conditions: Acinetobacter baumannii, ATCC17961, 16 h, strain ATCC 17961, OD600 growth over 16 h, read-out: A. baumannii ATCC 17961 IC90

| IC90 [µM] | Structure (SMILES) |
| --- | --- |
| 0.354 | O=C(NC1CNC1)N1CCN(C(=O)c2ccc(Nc3nccn4c(-c5cn(CC(F)F)nc5C(F)(F)F)cnc34)cc2Cl)CC1 [Example 581, N-(azetidin-3-yl)-4-(2-chloro-4-((3-(1-(2,2-difluoroethyl)-3-(trifluoromethyl)-1H-pyrazol-4-yl)imidazo[1,2-a]pyrazin-8-yl)amino)benzoyl) piperazine-1-carboxamide formate] |
| 0.257 | N#CCn1cc(-c2cnc3c(Nc4ccc(C(=O)N5CCN(C(=O)N[C@H]6C[C@@H](N)C6)CC5)c(Cl)c4)nccn23)c(C(F)(F)F)n1 [Example 584, N-((1s,3s)-3-aminocyclobutyl)-4-(2-chloro-4-((3-(1-(cyanomethyl)-3-(trifluoromethyl)-1H-pyrazol-4-yl)imidazo[1,2-a]pyrazin-8-yl)amino)benzoyl) piperazine-1-carboxamide formate] |
| 0.325 | N[C@H]1C[C@@H](NC(=O)N2CCN(C(=O)c3ccc(Nc4nccn5c(-c6cn(CC(F)F)nc6C(F)(F)F)cnc45)cc3Cl)CC2)C1 [Example 585, N-((1s,3s)-3-aminocyclobutyl)-4-(2-chloro-4-((3-(1-(2,2-difluoroethyl)-3-(trifluoromethyl)-1H-pyrazol-4-yl)imidazo[1,2-a]pyrazin-8-yl)amino)benzoyl) piperazine-1-carboxamide formate] |
| 0.84 | CCc1cc(Nc2nccn3c(-c4cn(Cc5ccn(CC#N)n5)nc4C(F)(F)F)cnc23)ccc1C(=O)NC [Example 589, 4-((3-(1-((1-(cyanomethyl)-1H-pyrazol-3-yl)methyl)-3-(trifluoromethyl)-1H-pyrazol-4-yl)imidazo[1,2-a]pyrazin-8-yl)amino)-2-ethyl-N-methylbenzamide] |
| 0.375 | CNC(=O)c1ccc(Nc2nccn3c(-c4cn(Cc5ccn(CC#N)n5)nc4C(F)(F)F)cnc23)cc1Cl [Example 590, 2-chloro-4-((3-(1-((1-(cyanomethyl)-1H-pyrazol-3-yl)methyl)-3-(trifluoromethyl)-1H-pyrazol-4-yl)imidazo [1,2-a]pyrazin-8-yl)amino)-N-methylbenzamide] |
| 0.131 | Cc1cc(Nc2nccn3c(-c4cn(CC5CC5)nc4C(F)(F)F)cnc23)ccc1S(C)(=O)=NCCCN (stereo not drawn) [Example 596, N-[4-[N-(3-aminopropyl)-S-methyl-sulfonimidoyl]-3-methyl-phenyl]-3-[1-(cyclopropylmethyl)-3-(trifluoromethyl)pyrazol-4-yl]imidazo[1,2-α]pyrazin-8-amine formate] |
| 0.179 | Cc1cc(Nc2nccn3c(-c4cn(CC#N)nc4C(F)(F)F)cnc23)ccc1S(C)(=O)=NCCCN (stereo not drawn) [Example 597, 2-[4-[8-[4-[N-(3-aminopropyl)-S-methyl-sulfonimidoyl]-3-methyl-anilino]imidazo[1,2-a]pyrazin-3-yl]-3-(trifluoromethyl)pyrazol-1-yl]acetonitrile] |
| 0.517 | O=C(CN1CCN(C(=O)c2ccc(Nc3nccn4c(-c5cn(CC(F)F)nc5C(F)(F)F)cnc34)cc2Cl)CC1)N[C@H]1CCNC1 [Example 600, (S)-2-(4-(2-chloro-4-((3-(1-(2,2-difluoroethyl)-3-(trifluoromethyl)-1H-pyrazol-4-yl)imidazo[1,2-a]pyrazin-8-yl)amino)benzoyl)piperazin-1-yl)-N-(pyrrolidin-3-yl) acetamide formate] |
| 0.422 | O=C(CN1CCN(C(=O)c2ccc(Nc3nccn4c(-c5cn(CC(F)F)nc5C(F)(F)F)cnc34)cc2Cl)CC1)N[C@@H]1CCNC1 [Example 601, (R)-2-(4-(2-chloro-4-((3-(1-(2,2-difluoroethyl)-3-(trifluoromethyl)-1H-pyrazol-4-yl)imidazo [1,2-a]pyrazin-8-yl)amino)benzoyl)piperazin-1-yl)-N-(pyrrolidin-3-yl) acetamide formate] |
